Laboratory results from publication PMC4730870 (Journal of natural products, 2015).

Tested on: peritoneal macrophages
Assay: In vitro mammalian toxicity, MTT method
Assay type: cell-based, BALB/c mice
Conditions: CC50 against macrophages/IC50 against amastigotes

SMILES: C=CCc1ccc(Oc2cc([C@H](O)C=C)cc(OC)c2O)c(OC)c1 [Compound 3, 1-[(7R)-Hydroxy-8-propenyl]-3-[3′-methoxy-1′-(8′-propenyl)-phenoxy]-4-hydroxy-5-methoxybenzene]
- SI selectivity index (CC50 mammalian cells/IC50 Leishmania amastigotes): >2.9
